Among the data in patent US9126980B2, “Compounds for inhibiting the interaction of BCL2 with binding partners” (Novartis AG, priority 2011, dated 2015) are IC50 values, retold here.

The target in test [1] is BCL-2 binding to biotinylated BAK peptide (Homo sapiens (Human), UniProt P10415). Description: SPR (Biacore) solution inhibition assay, BCL-2 binding to BAK peptide surface. Conditions: read-out: BCL2_SPR IC50 BAK. The text has this:
(§1) The present method includes utility of a Surface plasmon resonance (SPR)-based biosensor (Biacore™′ GE Healthcare, Uppsala, Sweden) to characterize BCL-2 inhibitors.
(§2) Biacore™ utilizes the phenomenon of surface plasmon resonance (SPR) to detect and measure binding interactions. In a typical Biacore experiment, one of the interacting molecules (ligand) is immobilized on a flexible dextran matrix while the interacting partner (analyte) is allowed to flow across that surface. A binding interaction results in an increase in mass on the sensor surface and a corresponding direct change in the refractive index of the medium in the vicinity of the sensor surface. Changes in refractive index or signal are recorded in resonance units (R.U.) Signal changes due to association and dissociation of complexes are monitored in a non-invasive manner, continuously and in real-time, the results of which are reported in the form of a sensorgram.
(§3) The SPR assay is configured to examine solution inhibition of BCL-2 binding to peptide derivatized sensor surfaces to generate IC50 values as a measure of inhibitor potency.
(§4) Solution Inhibition Assay Format:
(§5) Biacore™ A100 (GE Healthcare, Uppsala, Sweden) was used to conduct all experiments reported herein. Sensor surface preparation and all interaction analyses experiments were performed at 25° C. Reagents were purchased from GE Healthcare. Running buffer containing 10 mM Hepes, pH7.4, 150 mM sodium chloride, 1.25 mM Dithiothreitol, 3% Dimethyl sulfoxide and 0.05% polysorbate 20 were utilized throughout all analyses.
(§6) Biotinylated BAK, BAD and NOXA peptides were diluted to 10 nM in running buffer and captured onto a sensor surface pre-derivatized with streptavidin (sensor chip SA) to peptide surface densities in the range 50-100 R.U. Peptide captured surfaces were blocked with 500 μM PEO2-Biotin.
(§7) Interaction analyses were performed by first equilibrating each sample within a 6 point three fold compound dilution series in the range […] with 56 nM BCL-2 for one hour during instrument start-up procedures. Protein compound mixtures were then injected over each peptide surface in parallel for 60 seconds at a flow-rate of 30 μL/min. 56 nM BCL-2 control samples were also prepared and run at regular intervals during the assay. Surface regeneration was performed at the end of each analysis cycle by two 30 second injections of 10 mM Glycine, pH 2.5, 1M Sodium Chloride, 0.05% polysorbate 20. Samples and control compound samples were run in duplicate and controls are also run at regular intervals during the assay to monitor surface and assay performance.
(§8) Data analyses are carried out using Biacore™ A100 evaluation software v1.1 to validate assay quality. Binding level report points were used relative to BCL-2 control samples to calculate % inhibition values for each compound protein mixture. […] The range of data shown in table 1 represents the high and low IC50 values obtained from multiple experiments.

For test [2], the target named is BCL-2 binding to biotinylated BAD peptide (Homo sapiens (Human), UniProt P10415). As to the kind of experiment: SPR (Biacore) solution inhibition assay, BCL-2 binding to BAD peptide surface. To be noted: read-out: BCL2_SPR IC50 BAD.
Sequence of BCL-2 binding to biotinylated BAD peptide (P10415 whole entry): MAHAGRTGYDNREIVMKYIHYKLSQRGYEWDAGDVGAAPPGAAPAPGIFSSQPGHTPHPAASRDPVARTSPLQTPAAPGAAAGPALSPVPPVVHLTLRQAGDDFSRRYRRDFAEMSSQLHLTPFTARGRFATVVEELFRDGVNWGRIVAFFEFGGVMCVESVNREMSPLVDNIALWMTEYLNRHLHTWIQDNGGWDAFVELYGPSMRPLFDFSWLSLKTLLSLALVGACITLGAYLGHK
Source text: as §1, §2, §3, §4, §5, §6, §7, §8

The mark [3] stands for this setting: high and low IC50 values from multiple experiments, 56 nM BCL-2, BAK peptide sensor surface, 25° C.
Where [4] appears, read: high and low IC50 values from multiple experiments, 56 nM BCL-2, BAD peptide sensor surface, 25° C.

Read-outs that look alike come from different tables or passages of the source. Where only a bound is given, the exact number is not on record here.

Sequence of BCL-2 binding to biotinylated BAK peptide (P10415 whole entry): as above

Turning to `CCCCN(CCCC)C(=O)c1cc(C)n(-c2ccc(NS(=O)(=O)c3ccccc3Cl)cc2C(=O)N2Cc3ccccc3C[C@H]2CO)n1` [Example 14], the IC50 in test [1] (setting [3]) fell in the range of 435 to 683 nM.

Take `CCCCN(CCCC)C(=O)c1cc(C)n(-c2ccc(NS(=O)(=O)c3cc(Cl)ccc3F)cc2C(=O)N2Cc3ccccc3C[C@H]2CO)n1` [Example 17]: in test [1] (setting [3]), the IC50 is 828 to 871 nM. With `CCCCN(CCCC)C(=O)c1cc(C)n(-c2ccc(NS(C)(=O)=O)cc2C(=O)N2Cc3ccccc3C[C@H]2CO)n1` [Example 2], the figures for the IC50 in test [1] and in test [2] were 260 to 330 nM and 367 to 387 nM, respectively. Turning to `CCCCN(CCCC)C(=O)c1cc(C)n(-c2ccc(NS(=O)(=O)c3ccccc3)cc2C(=O)N2Cc3ccccc3C[C@H]2CO)n1` (stereo in doubt) [Example 1, N,N-dibutyl-1-(2-(3-(hydroxymethyl)-1,2,3,4-tetrahydroisoquinoline-2-carbonyl)-4-(phenylsulfonamido)phenyl)-5-methyl-1H-pyrazole-3-carboxamide], the half-maximal inhibitory concentration (IC50) lay in the range of 474 to 564 nM in test [1] and 629 to 756 nM in test [2]. As to `CCCCN(CCCC)C(=O)c1cc(C)n(-c2ccc(NS(=O)(=O)c3ccc(NC(C)=O)c(Cl)c3)cc2C(=O)N2Cc3ccccc3C[C@H]2CO)n1` [Example 25], the IC50 in test [1] (setting [3]) lay in the range of 252 to 257 nM; in test [2] (setting [4]), 418 to 436 nM.

Turning to `CCCCN(CCCC)C(=O)c1cc(C)n(-c2ccc(NS(=O)(=O)C(C)C)cc2C(=O)N2Cc3ccccc3C[C@H]2CO)n1` [Example 3], the IC50 in test [1] was in the range of 87.8 to 93 nM; in test [2], 126 to 127 nM.

Turning to `CCCCN(CCCC)C(=O)c1cc(C)n(-c2ccc(NS(=O)(=O)c3ccc(-c4ccc(Cl)cc4)cc3)cc2C(=O)N2Cc3ccccc3C[C@H]2CO)n1` [Example 9], in test [2] (setting [4]), the 50% inhibitory concentration (IC50) was above 16000 nM. `CCCCN(CCCC)C(=O)c1cc(C)n(-c2ccc(NS(=O)(=O)c3ccc(CNC(=O)c4ccc(Cl)cc4)s3)cc2C(=O)N2Cc3ccccc3C[C@H]2CO)n1` [Example 30]: the IC50 in test [1] (setting [3]) lay in the range of 2280 to 2510 nM. On to `CCCCN(CCCC)C(=O)c1cc(C)n(-c2ccc(NS(=O)(=O)c3ccc(Oc4ccccc4C)cc3)cc2C(=O)N2Cc3ccccc3C[C@H]2CO)n1` [Example 10], for which the IC50 in test [1] (setting [3]) is 3020 to 3680 nM; in test [2] (setting [4]), above 16000 nM.
